Patent US6548543B1, “Remedies or preventives containing cyclopentenone compounds as the active ingredient” (Takara Shuzo Co., Ltd., priority 1998, dated 2003)
Converted amounts (≈) assume the structure as drawn. Numbered stars: 1 amine (or outer) side, 2 acyl side, 3 side chain; on linkers, the order of the positions; unused ones are H or OH. Bridge positions count the residues as written; N and C are the ends. Square brackets hold non-standard residues; d marks the D form. Peptide text beside a SMILES is read from it. I, II: the chains in the order shown. Actinocin(9to1) = Cc1c2oc3c(C)ccc(C(=O)[*:1])c3nc-2c(C(=O)[*:2])c(N)c1=O; NMeV = CN[C@H](C(=O)O)C(C)C; Sar = CNCC(=O)O

Columns and labels:
[1] = test system: HL-60 (ATCC CCL-240) cells; assay: Viability and apoptosis of HL-60 cells (Trypan Blue, optical microscope); type: cell-based; settings: 24 hours; for IC50: Homo sapiens, Trypan Blue, read-out: Viability50 (concentration that results in a viability of 50%)
Procedure: HL-60 (ATCC CCL-240) cells were cultured at 37° C. in RPMI 1640 medium (Bio Whittaker) containing 10% fetal calf serum (FCS; JRH) which had been treated at 56° C. for 30 minutes and suspended in RPMI 1640 medium at a concentration of 2.5×10^5 cells/5 ml.
10 μl each of solutions of diisobutyrylcyclopentenone, dimethoxyacetylcyclopentenone, dimethylfumarylcyclopentenone or dimethylmaleylcyclopentenone in 70% ethanol in water diluted to varying concentrations was added to 5 ml of the suspension. The mixtures were incubated at 37° C. for 24 hours in the presence of 5% Co2. 10 μl of aqueous actinomycin D (Sigma) solution (0.5 mg/ml), which is known as a reagent that induces apoptosis, was used in place of the sample and the mixture was incubated under the same conditions for confirmation.
The cultured cells were examined under an optical microscope.
Furthermore, a portion of the cells cultured as described above was stained with 0.4% Trypan Blue and examined under an optical microscope. The number of viable cells which were not stained and the number of dead cells which were stained blue were counted. The concentration of each of the samples that results in a viability of 50% (Viability50 μM) was determined.

[2] = test system: tumor necrosis factor (TNF)-α; assay: Endotoxin shock model, serum TNF-α after LPS; type: in vivo, CDF1 mice; settings: serum 1.5 hours after LPS
Procedure: (1) A model for endotoxin shock was constructed using CDF1 mice (8 weeks old, female, purchased from Japan SLC). Distilled water (control), or 10 mg/kg of diisopropionylcyclopentenone or diisobutyrylcyclopentenone was subcutaneously administered to a mouse. 20 μg of lipopolysaccharide (LPS; Sigma) was intraperitoneally administered to each mouse 30 minutes after the administration. Blood was collected from the mouse 1.5 hours after the administration with LPS. The amount of tumor necrosis factor (TNF)-α in a serum separated from the collected blood was measured using a commercially available ELISA kit (R&D). Each group consisted of 4 mice.
(2) A model for endotoxin shock was constructed by intraperitoneally administering 20 μg of LPS to a CDF1 mouse (8 weeks old, female). 30 or 100 mg/kg of dipropionylcyclopentenone or diisobutyrylcyclopentenone was orally administered 30 minutes before the administration with LPS. Blood was collected from the mouse 1.5 hours after the administration with LPS. The amount of TNF-α in a serum separated from the collected blood was measured using an ELISA kit. Each group consisted of 4 mice.

[3] = test system: Candida albicans TIMM0136; assay: Antifungal activity, growth inhibition; type: cell-based; settings: 10 μl of solution at 100 or 500 μg/ml added to 100 μl culture, 30° C., 48 hours
Procedure: Dipropionylcyclopentenone, diisobutyrylcyclopentenone and di-2-hexenoylcyclopentenone were used to examine their antifungal activities against Candida albicans TIMM0136.
Candida albicans cells were cultured overnight in YNBG medium containing 0.67% Yeast Nitrogen Base (Difco) and 1.0% glucose (seed culture). The culture was then diluted with fresh Yeast Nitrogen Base medium to a concentration of 1×10^6 cells/ml. 100 μl of the dilution was dispensed into each well of a 96-well microtiter plate.
10 μl each of solutions of dipropionylcyclopentenone, diisobutyrylcyclopentenone or di-2-hexenoylcyclopentenone in 70% ethanol at a concentration of 100 μg/ml or 500 μg/ml, or 10 μl of 70% ethanol solution was added to the well. The plate was incubated without shaking at 30° C. for 48 hours (main culture).

[4] = test system: Ehrlich ascites carcinoma (EAC); assay: Ascitic cancer EAC, prolongation of survival; type: in vivo, ddY mouse; settings: 5 successive days; for 30-day survival number: groups of 8 mice
Procedure: (§1) (3) The carcinostatic activities of dipropionylcyclopentenone and diisobutyrylcyclopentenone against various ascitic cancers were examined using two types of cancer cells, Ehrlich ascites carcinoma (EAC) and Meth A, administered intraperitoneally or orally at a varying dose.
(§2) Dipropionylcyclopentenone or diisobutyrylcyclopentenone was intraperitoneally or orally administered for 5 successive days from the day after the transplantation with cancer cells. Injectable distilled water was administered to a control group in a similar manner. Average days of survival, prolongation rate and 30-day survival number were calculated for groups each consisting of 8 mice.

Meth A = assay: Ascitic cancer Meth A, prolongation of survival, 5 successive days; type: in vivo, BALB/c mouse; settings: intraperitoneal 10 mg/kg
Procedure: as §1, §2

[5] = Single oral dose toxicity; type: in vivo; settings: mouse
Procedure: No toxicity is observed when a physiologically effective amount of the cyclopentenone derivative or an optical isomer thereof, or a salt thereof obtained according to the present invention is administered.

[6] = test system: 70-kDa heat shock protein; assay: Induction of 70-kDa heat shock protein in HL-60 cells (Western blot); type: cell-based; set-up: key to Degree of induction of 70-kDa heat shock protein: − means that no induction was observed; ± means that a slight induction was observed; + represents the induction level; ++: Increased number of + means increased induction; +++: Increased number of + means increased induction; settings: for Degree of induction of 70-kDa heat shock protein: HL-60, 6 hours
Procedure: (1) 5 ml of RPMI 1640 medium containing 10% fetal calf serum and HL-60 (ATCC CCL-240) cells at a concentration of 2×10^5 cells/ml was placed in each well of a 6-well plate. The plate was incubated at 37° C. for 24 hours in the presence of 5% CO2. Dipropionylcyclopentenone, diisobutyrylcyclopentenone or di-2-hexenoylcyclopentenone at a final concentration of 0, 0.63, 1.3, 2.5, 5, 10 or 20 μM was then added thereto. The incubation was continued for additional 6 hours.
After incubation, the cell number was counted. The cells were harvested by centrifugation, washed with PBS to prepare cells treated with one of the samples. Cells that were cultured in the same manner after heated at 45° C. for 10 minutes were also prepared.
These treated cells were used for SDS-PAGE according to the method as described in Molecular Cloning [Cold Spring Harbor Laboratory Press (1989)]. The treated cells were suspended in SDS-PAGE Sample buffer at a concentration of 2.5×10^6 cells/ml. The cell suspensions were treated at 100° C. for 10 minutes. 5 μl each of the cell suspensions was applied to two SDS-PAGE gels (5% stacking gel, 10% separation gel) and electrophoresed. One of the gels was subjected to Coomassie staining. The other gel was blotted onto a polyvinylidene difluoride transfer membrane (Immobilon™, Millipore, Cat. #IPVH000-10). The membrane was blocked at 4° C. overnight using Block Ace (Dainippon Pharmaceutical, Cat. #UK-B25).
The blocked membrane was reacted with a monoclonal antibody HSP72/73(Ab-1) (Oncogene Research Products, Cat. #HSP01), which specifically reacts with heat-inducible 70-kDa heat shock protein. The membrane was washed with TBS containing 0.05% Tween 20 followed by TBS. The membrane was then reacted with a peroxidase-conjugated secondary antibody HRP-Rabbit Anti-Mouse IgG (H+L) (Zymed Laboratories, Inc., Cat. #61-6520), and then washed as described above. The membrane reacted with the primary and secondary antibodies was reacted with a chemiluminol reagent Renaissance™ (Dupont NEN, Cat. #NEL-100). The membrane was then exposed to an X-ray film to confirm the induction of 70-kDa heat shock protein.

[7] = test system: λ-carrageenan pedal edema; assay: Carrageenan induced pedal edema; type: in vivo, Lewis rats; settings: rat, 3 hours after carrageenan
Procedure: Lewis rats (male, 9 weeks old, weighing about 250 g) were purchased from Seac Yoshitomi.
Rats were fasted from 18 hours before the start of the experiments. Dipropionylcyclopentenone, dihexanoylcyclopentenone, di-2-hexenoylcyclopentenone, diisobutyrylcyclopentenone or dibenzoylcyclopentenone dissolved in olive oil (Nacalai Tesque) was orally administered to 4 rats per group at 1 or 10 mg/10 ml/kg.
100 μl of 1% λ-carrageenan (Wako Pure Chemical Industries) suspension in saline (Otsuka Pharmaceutical) was injected into the sole of right paw of a rat 0.5 hour after the administration of test substance to induce pedal edema. The volume of the right foot of the rat was measured using an instrument for measuring pedal volume (Ugo Basile) 3 hours after the injection with carrageenan. The measurements were expressed as the rate of increase calculated based on the volume of the right foot of each rat measured before the administration with carrageenan.
FIG. 5 illustrate the relationship between the amount of cyclopentenone derivative administered and the rate of increase in edema in foot. The horizontal axis represents the dose […] and the vertical axis represents the rate of increase (%).

[8] = oral, single dosage of 100 mg/kg

CC(C)C(=O)OC1C=CC(=O)C1OC(=O)C(C)C (stereo not drawn) [Diisobutyrylcyclopentenone, diisobutyrylcyclopentenone]
IC50 [1]: 8.8 µM
Amount of TNF mean ± SE ([2]; 10 mg/kg subcutaneous 30 minutes before LPS): 3.39 ± 0.33 ng/mL
TNF mean ± SE ([2]; 30 mg/kg oral 30 minutes before LPS): 3.92 ± 0.13 ng/mL
TNF mean ± SE ([2]; 100 mg/kg oral 30 minutes before LPS): 2.48 ± 0.43 ng/mL
MIC ([3]; Candida albicans, TIMM0136, read-out: Minimum growth inhibitory concentration): 500 µg/mL (≈ 1970 µM)
Average days of survival ([4]; intraperitoneal 10 mg/kg): 17.0 days
Prolongation rate ([4]; intraperitoneal 10 mg/kg): 136%
30-day survival number ([4]; intraperitoneal 10 mg/kg): 0
Average days of survival ([4]; intraperitoneal 30 mg/kg): 25.3 days
Prolongation rate ([4]; intraperitoneal 30 mg/kg): >202%
30-day survival number ([4]; intraperitoneal 30 mg/kg): 3
Average days of survival ([4]; oral 30 mg/kg): 15.1 days
Prolongation rate ([4]; oral 30 mg/kg): 121%
30-day survival number ([4]; oral 30 mg/kg): 0
Average days of survival ([4]; oral 100 mg/kg): 20.9 days
Prolongation rate ([4]; oral 100 mg/kg): 167%
30-day survival number ([4]; oral 100 mg/kg): 0
Average days of survival (Meth A): 15.5 days
Prolongation rate (Meth A): 132%
30-day survival number (Meth A; groups of 8 mice): 0
Death after single oral administration ([5]; in vivo, po, 100 mg/kg): no death was observed
Concentration at which ability to induce HSP70 is maximized [6]: 2.5 µM
Concentration at which ability to induce HSP70 is observed [6]: 1.25 µM
Degree of induction of 70-kDa heat shock protein ([6]; 0.63 μM): ±
Degree of induction of 70-kDa heat shock protein ([6]; 1.3 μM): +
Degree of induction of 70-kDa heat shock protein ([6]; 2.5 μM): +++
Degree of induction of 70-kDa heat shock protein ([6]; 5 μM): +++
Degree of induction of 70-kDa heat shock protein ([6]; 10 μM): +
Degree of induction of 70-kDa heat shock protein ([6]; 20 μM): +

COCC(=O)OC1C=CC(=O)C1OC(=O)COC (stereo not drawn) [Dimethoxyacetylcyclopentenone, dimethoxyacetylcyclopentenone]
IC50 [1]: 14 µM

COC(=O)/C=C/C(=O)OC1C=CC(=O)C1OC(=O)/C=C/C(=O)OC (stereo not drawn) [Dimethylfumarylcyclopentenone, dimethylfumarylcyclopentenone]
IC50 [1]: 2.9 µM

Cc1c2oc3c(C)ccc(C(=O)N[C@@H]4C(=O)N[C@H](C(C)C)C(=O)N5CCC[C@H]5C(=O)N(C)CC(=O)N(C)[C@@H](C(C)C)C(=O)O[C@@H]4C)c3nc-2c(C(=O)N[C@@H]2C(=O)N[C@H](C(C)C)C(=O)N3CCC[C@H]3C(=O)N(C)CC(=O)N(C)[C@@H](C(C)C)C(=O)O[C@@H]2C)c(N)c1=O [actinomycin D, reference compound] (I: T[dV]P[Sar][NMeV] / II: T[dV]P[Sar][NMeV]; ester I:1-I:C, II:1-II:C; linker I:N-II:N via Actinocin(9to1))
Apoptosis-inducing / antiproliferation activity (condensation of nuclei, shrinking of cells, apoptotic bodies) ([1]; optical microscope): Condensation of nuclei, shrinking of cells and formation of apoptotic bodies were observed

di-2-hexenoylcyclopentenone
Minimum growth inhibitory concentration [3]: 500 µg/mL
Suppression of edema in foot (FIG. 5) ([7]; 1 mg/kg oral): significant suppression
Suppression of edema in foot (FIG. 5) ([7]; 10 mg/kg oral): significant suppression
Death after single oral administration [5, 8]: no death was observed
Degree of induction of 70-kDa heat shock protein ([6]; 0.63 μM): ±
Degree of induction of 70-kDa heat shock protein ([6]; 1.3 μM): +
Degree of induction of 70-kDa heat shock protein ([6]; 2.5 μM): ++
Degree of induction of 70-kDa heat shock protein ([6]; 5 μM): +++
Degree of induction of 70-kDa heat shock protein ([6]; 10 μM): ±
Degree of induction of 70-kDa heat shock protein ([6]; 20 μM): −

dihexanoylcyclopentenone
Suppression of edema in foot (FIG. 5) ([7]; 1 mg/kg oral): significant suppression
Suppression of edema in foot (FIG. 5) ([7]; 10 mg/kg oral): significant suppression
Death after single oral administration [5, 8]: no death was observed
